63 compounds from PubChem BioAssay AID624404 (Broad Institute, 2012) can be followed below.

Results filed as inconclusive are left out.

The subject of this assay is D54 LucT luciferase reporter counterscreen, luminescence, 24 h. In words: reporter signal increase, D54 LucT cells – cell-based, luminescence, cherry pick, counter-screen for N-linked glycosylation inhibitor project, dose response (AID 624404).
In the case of `Cc1ccc2nc(SCc3nnc(-c4ccccc4[N+](=O)[O-])o3)c(C#N)cc2c1`, the AC35 is 1.3 µM.

For `Cc1ccc(-c2nn3c(C)nnc3c3ccccc23)cc1S(=O)(=O)N(C)CCO`, the AC35 was 0.599 µM.

As to `COc1ccc(NC(=O)C2(C)Cc3c(-c4cccc(C(N)=O)c4)ccnc3O2)cc1` (stereo not drawn), the AC35 is 3.62 µM.

For the compound `CC(C)(C)c1ccc(OCC(=O)Nc2ccncc2)c(Br)c1`, the AC35 is 0.0356 µM.

Take `COc1ccc(/C=N\NC(=O)c2sccc2C)cc1Cn1nc(C)cc1C`: the AC35 was 0.28 µM.

`COc1ccc2c(c1)[C@H]1[C@H](CO2)[C@H](c2ccccc2)[C@]2(C)C(=O)Nc3ccc(Br)cc3C(=O)N12`: the AC35 was 0.233 µM.

For `C[C@@]12C(=O)Nc3cc(F)c(F)cc3C(=O)N1[C@H]1c3cc(Cl)ccc3OC[C@@H]1[C@@H]2c1ccccc1`, the AC35 is 1.6 µM.

As to `O=C(COc1ccc(/C=N/NC(=O)c2cc3ccccc3o2)cc1Br)Nc1ccccc1`, the AC35 was 0.027 µM.

With `CN(CCCNC(=O)CCCOc1cc(=O)n(C)c2ccccc12)Cc1ccccc1`, the AC35 was 5.23 µM.

With `CCc1ccc(OCC(=O)Nc2ccc(-c3cc4ccccc4oc3=O)c(OC)c2)cc1`, the AC35 is 0.734 µM.

In the case of `O=C(Nc1ccccc1O)c1ccc(NC(=O)C2CC2)cc1`, the AC35 was 0.432 µM.

As for `O=C(C=Cc1cccc(O)c1)c1ccccc1O`, the AC35 is 4.5 µM.

Take `COc1cccc(C2=CC(c3cccc(OC)c3OC)n3nnnc3N2)c1` (stereo not drawn): the AC35 is 0.765 µM.

For the compound `Nc1c2ccccc2nc2ccccc12`, the AC35 is 4.9 µM.

As for `O=c1cc(-c2ccccc2)[nH]c2cc(F)ccc12`, the AC35 was 2.38 µM.

Consider `C=CCn1c(SCc2c(C)noc2C)nc2sc3c(c2c1=O)CCC(C)C3` (stereo not drawn), for which the AC35 is 0.238 µM.

On to `Cn1cccc1/C=C1\SC(=Nc2ccccc2)NC1=O`, for which the AC35 is 0.473 µM.

Turning to `Brc1ccc(C2=Nn3c(nnc3-c3n[nH]c4c3CCC4)SC2)cc1`, the AC35 was 0.394 µM.

For the compound `COC(=O)c1c(C)[nH]c(C(=O)/C=C/c2cccc(Cl)c2)c1C`, the AC35 is 0.839 µM.

As for `O=C1C=C(c2cccs2)C[C@H](c2ccccc2)[C@H]1n1nnc([N+](=O)[O-])n1`, the AC35 is 0.208 µM.

In the case of `CCOc1cc(C(=O)Nc2ccc(N3CCOCC3)cc2)cc(Br)c1OC`, the AC35 is 3.66 µM.

Consider `O=C(N/N=C/c1c(-c2ccccc2)[nH]c2ccccc12)c1cccnc1`, for which the AC35 is 1.28 µM.

For the compound `Cc1cc(=O)n2c3c(c4c(cc13)c(CN(C)C)cc(=O)n4C)OC2`, the AC35 was 0.0315 µM.

As to `CCOC(=O)c1c(C)[nH]c(-c2csc(N)n2)c1C`, the AC35 is 0.787 µM.

Consider `COc1cc2c(cc1OC)C(c1ccccc1)N(C(=O)c1cccc(S(C)(=O)=O)c1)CC2` (stereo not drawn), for which the AC35 was 0.212 µM.

Consider `COc1cccc(-c2cnc3c(NC(C)=O)cc(-c4cc(F)ccc4OC)cn23)c1`, for which the AC35 was 4.27 µM.

Consider `CCOc1ccc(C(=O)n2cc(C(=O)OC)c3ccccc32)cc1`, for which the AC35 was 6.03 µM.

Take `O=C(/C=C/c1cccc([N+](=O)[O-])c1)c1ccc2c(c1)OCCO2`: the AC35 was 0.247 µM.

On to `Cc1cc(C(=O)N/N=C/c2c3ccccc3cc3ccccc23)n[nH]1`, for which the AC35 is 0.643 µM.

Regarding `O=C(Nc1ccc(Cc2ccncc2)cc1)c1ccc([N+](=O)[O-])o1`, the AC35 was 2.68 µM.

Turning to `CC(=O)Nc1ccc(CC(=O)NCCC(c2ccccc2)c2ccccc2)cc1`, the AC35 is 7.67 µM.

With `COc1ccc2nc3ccccc3nc2c1NC(=O)c1ccccc1Cl`, the AC35 is 17.9 µM.

For `Cc1cc(-c2nnc3n2N=C(c2ccc(-c4ccccc4)cc2)CS3)n[nH]1`, the AC35 is 1.26 µM.

Turning to `CSc1cccc(NC(=O)CCCOc2cc(=O)n(C)c3ccccc23)c1`, the AC35 is 4.53 µM.

For `O=C(/C=C/c1ccccc1)c1ccccc1`, the AC35 is 1.2 µM.

Regarding `Cc1ccc(C(=O)N2CCN(Cc3ccccc3)CC2)cc1S(=O)(=O)N1CCOCC1`, the AC35 was 2.96 µM.

As to `CCc1ccc(OCC(=O)Nc2ccncc2)c(Br)c1`, the AC35 is 0.598 µM.

As for `CCOC(=O)c1c(NC(=O)c2cc3n(n2)C(C(F)(F)F)CC(c2cccs2)N3)sc(C)c1C` (stereo not drawn), the AC35 is 5.36 µM.

On to `Cc1ccc(NC(=O)c2ncn(CCCNCc3ccccc3)n2)cc1C`, for which the AC35 was 0.994 µM.

For the compound `COCCCNC(=O)Cc1c(C)c2c(cc(C)c3c(C(C)(C)C)coc32)oc1=O`, the AC35 is 0.156 µM.

On to `COc1ccccc1NC(=O)/C=C/c1ccc2c(c1)OCO2`, for which the AC35 was 0.19 µM.

In the case of `COc1cc2[nH]c(C(=O)Nc3ccc(F)cc3)cc2c(OC)c1OC`, the AC35 was 0.0982 µM.

Turning to `CCOc1cc(-c2c(C#N)c(N)nc3c2CCc2ccccc2-3)ccc1O`, the AC35 is 3.85 µM.

Take `O=C(N/N=C/c1cccs1)c1cc(-c2cccc3ccccc23)n[nH]1`: the AC35 is 3.53 µM.

Regarding `Cc1cc(NS(=O)(=O)c2ccc(NC(=O)COc3c(C)cc(Br)cc3C)cc2)no1`, the AC35 was 1.66 µM.

For the compound `COc1ccc(Nc2nc(N(C)c3ccccc3)nc(N)c2[N+](=O)[O-])cc1`, the AC35 is 0.171 µM.

On to `O=C1Cc2c([nH]c3ccc(Br)cc23)-c2ccccc2N1`, for which the AC35 is 0.00252 µM.

Consider `COc1cc(C(=O)OCCCN2CCCN(CCCOC(=O)c3cc(OC)c(OC)c(OC)c3)CC2)cc(OC)c1OC`, for which the AC35 was 2.19 µM.

For the compound `Cc1nc2ncccn2c1-c1csc(Nc2ccc(N(C)C)cc2)n1`, the AC35 is 0.0289 µM.

As for `C[C@@]12C(=O)Nc3cc(Cl)ccc3C(=O)N1[C@H]1c3ccccc3OC[C@@H]1[C@@H]2c1ccccc1`, the AC35 is 0.282 µM.

For the compound `CCOC(=O)c1[nH]c(C)c(C(=O)c2ccc(C)cc2)c1C`, the AC35 is 1.1 µM.

In the case of `O=C1[C@H]2[C@@H](c3ccc(F)cc3)N3C(=O)N(c4cccc(Cl)c4)C(=O)[C@@]3(Cc3ccccc3)[C@H]2C(=O)N1C1CCCCC1`, the AC35 is 1.06 µM.

Consider `Cc1cc(C)cc(-n2c3ccc(NC(=O)Cc4cccc5ccccc45)cc3c(=O)n2C)c1`, for which the AC35 is 5.01 µM.

As to `Cn1c(=O)[nH]c(=O)c2c1nc(N1CCN(Cc3ccccc3)CC1)n2CCCc1ccccc1`, the AC35 is 0.465 µM.

As to `Cc1[nH]c2ccccc2c1/C=N/NC(=O)c1cc(-c2ccncc2)nc2ccccc12`, the AC35 was 2.06 µM.

`COc1ccc(-n2c(=S)[nH]c3cc(C(=O)Nc4ccc(F)cc4)ccc3c2=O)c(OC)c1`: the AC35 is 1.47 µM.

For the compound `Nc1c(C(=O)c2ccccc2)sc2nsc(SCCN3CCOCC3)c12`, the AC35 is 0.0578 µM.

With `c1ccc(Cc2nnc(Sc3ccccc3)c3ccccc23)cc1`, the AC35 was 3.83 µM.

For `CC(=O)Nc1cc(-c2cccc(C(=O)N(C)C)c2)cn2c(-c3cccc(C(=O)N(C)C)c3)cnc12`, the AC35 is 1.74 µM.

For the compound `COc1ccc2c(c1)C(=O)N1[C@H]3c4cc(Cl)ccc4OC[C@@H]3[C@H](c3ccccc3)[C@]1(C)C(=O)N2`, the AC35 is 0.981 µM.

As to `COc1cccc(C(NC(C)=O)c2nc(-c3ccccc3C)cs2)c1` (stereo not drawn), the AC35 was 0.678 µM.

In the case of `CCn1c(=S)[nH]c2cc(S(=O)(=O)N3CCCCC3)ccc21`, the AC35 was 1.25 µM.

As for `COc1ccccc1NS(=O)(=O)c1ccc(C(=O)Nc2ncccc2O)cc1`, the AC35 is 8.86 µM.
